Measured values from patent publication US12605397B2, “Deoxy-cytidine or uridine derivatives for use in cancer therapies” (HEMISPHERIAN AS, priority 2019, dated 2026).

Experiments:
U87-MG cells = assay: Survival assay (MTT), U87-MG; conditions: MTT; for cytotoxicity to U87-MG cells (cell survival): up to 100 μM; for IC50: U87-MG, Glioma, Grade IV
Method: (§5) Cell lines not mentioned above were grown in DMEM (Sigma, Cat.Nr. D6429) supplemented with 10% Fetal Bovine Serum and 100 U/ml penicillin 100 U/ml streptomycin. All cells were maintained in a 5% CO2, humidified, water-jacketed incubator at 37° C. Cells were passed between 70 and 90% confluence.
(§6) In a 96-well plate, 4000 cells in 100 μl of corresponding medium were seeded. The following day, drugs, diluted in DMSO, were added in 8 concentrations in triplicate. Drugs were added as a 4-fold dilution series starting from 100 μM. Cells were incubated with the drugs for 72 hours. Cell proliferation was assessed by MTT assay according to the manufacturer's protocol (ATCC, Cat. Nr. 30-1010K). Cell survival was normalized to the survival of cells treated with DMSO only. Experiment was performed three times, data represent mean of nine wells±SEM.
In a 96-well plate, 4000 cells in 100 μl of corresponding medium were seeded. The following day, drugs, diluted in DMSO, were added in triplicate at a concentration of 100, 25, 6.25, 1.56, 0.39, 0.1, 0.02, or 0.006 ┘M. Cells were incubated with the drugs for 72 hours. Cell proliferation was assessed by MTT assay according to the manufacturer's protocol (ATCC, Cat. Nr. 30-1010K). Cell survival was normalized to the survival of cells treated with DMSO only. Experiment was performed three times, data represent mean of nine wells±SEM.

HeLa cells = assay: Survival assay (MTT), HeLa; conditions: for IC50: HeLa
Method: as §5, §6
HeLa cells, grown as described above (Materials and Methods), were treated with 5-hydroxymethyl-2′-deoxycytidine and 5-formyl-2′-deoxycytidine. After three days of treatment with these compounds, cell survival was assessed as described above (Materials and Methods).
After three days of treatment with these compounds at a concentration of 100, 25, 6.25, 1.56, 0.39, 0.1, 0.02, or 0.006 μM, cell survival was assessed by MTT assay as described above (Materials and Methods).

A-498 cells = assay: Survival assay (MTT), A-498; type: cell-based, human; conditions: A-498, Kidney Carcinoma, 72 hours, MTT
Method: (§1) Cells were passed between 70 and 90% confluence.
(§2) Cells were incubated with the drugs for 72 hours.

HCT-116 cells = assay: Survival assay (MTT), HCT-116; type: cell-based, human; conditions: HCT-116, Colon Carcinoma, 72 hours, MTT
Method: as §2

U2OS cells = assay: Survival assay (MTT), U2OS; type: cell-based, human; conditions: Bone Osteoscarcoma, 72 hours, MTT
Method: as §1, §2

MCF-7 cells = assay: Survival assay (MTT), MCF-7; type: cell-based, human; conditions: MCF-7, Epithelial Adenocarcinoma (Breast), 72 hours, MTT
Method: as §1, §2

human cancer cell lines = assay: Survival assay, range of human cancer cell lines; type: cell-based; conditions: cell lines of Table 1
Method: as §2
With the knowledge that 5-formyl-2′-deoxycytidine is cytotoxic to cervical carcinoma (HeLa) cells, the study was expanded in two directions: (i) a further compound was assessed: 5-carboxyl-2′-deoxycytidine; and (ii) their cytotoxic effects against a wide range of human cancer cell lines was assessed (Table 1).

NCI-N87 cells = assay: Survival assay (MTT), NCI-N87; type: cell-based, human; conditions: NCI-N87, Gastric Carcinoma, 72 hours, MTT
Method: as §1, §2

22Rv1 cells = assay: Survival assay (MTT), 22Rv1; type: cell-based, human; conditions: 22Rv1, Prostate Carcinoma, 72 hours, MTT
Method: as §1, §2

HL-60 cells = assay: Survival assay (MTT), HL-60; type: cell-based, human; conditions: HL-60, Acute Promyelocytic Leukemia, 72 hours, MTT
Method: as §1, §2

SK-OV-3 cells = assay: Survival assay (MTT), SK-OV-3; type: cell-based, human; conditions: SK-OV-3, Ovarian Adenocarcinoma, 72 hours, MTT
Method: as §1, §2

A375 cells = assay: Survival assay (MTT), A375; type: cell-based, human; conditions: A375, Malignant Melanoma, 72 hours, MTT
Method: as §1, §2

MIA PaCa-2 cells = assay: Survival assay (MTT), MIA PaCa-2; type: cell-based, human; conditions: MIA PaCa-, Pancreatic Carcinoma, 72 hours, MTT
Method: as §1, §2

U937 cells = assay: Survival assay (MTT), U937; type: cell-based, human; conditions: U937, Lymophoma, 72 hours, MTT
Method: as §1, §2

A549 cells = assay: Survival assay (MTT), A549; type: cell-based, human; conditions: A549, Lung Carcinoma, 72 hours, MTT
Method: as §1, §2

DIPG007 cells = assay: Survival assay (MTT), DIPG007; type: cell-based, human; conditions: DIPG007, Glioma, Grade IV, 72 hours
Method: as §1, §2

[1] = test system: Glioma, Grade IV cell lines; assay: Survival assay, panel of 12 patient derived Glioma, Grade IV cell lines; type: cell-based, human; conditions: of 12 cell lines of Table 2
Method: (§3) Primary glioma neural stem (GNS) cells (G7, G14, G144, G166) were cultured on poly-D-lysine (Merck Millipore, Cat. Nr. A-003-E) and laminin (R&D Systems, Cat.Nr. 3446-005-01) coated plates in neural stem cell medium (50% DMEM-F12 (Thermofisher, Cat. Nr. 21041025), 50% neurobasal medium (Thermofisher, Cat. Nr. 10888-022), N2 (Life Technologies, Cat. Nr. A-003-E) and B27 supplements (Life Technologies, Cat.Nr. 12587010), 1 mM sodium pyruvate (Life Technologies, Cat.Nr. 11360-039), 2 mM glutamax (Life Technologies, Cat. Nr. 35050038), 1 mM HEPES (Fisher Scientific, Cat. Nr. BP299-1), 0.1 mM β-mercaptoethanol (Life Technologies, Cat. Nr. 31350010), 1× nonessential amino acids (Life Technologies, Cat. Nr. 11140-035), 0.006% bovine serum albumin (Sigma, Cat. Nr. A8577-10ML), 4 μg/ml heparin (Sigma, Cat. Nr. H3149-25KU), 100 U/ml penicillin, 100 μg/ml streptomycin, 20 ng/ml hEGF (R&D Systems, Cat. Nr. 236-EG-200), 10 ng/ml bFGF (Peprotech, Cat. Nr. 100-18B).
as §1, §2
Due to lack of activity in previous assays, 5-carboxyl-2′-deoxycytidine was not included in this more rigorous analysis.

G7 cells = assay: Survival assay (MTT), G7; type: cell-based, human; conditions: G7, Glioma, Grade IV, 72 hours
Method: as §3, §2

HaCat cells = assay: Survival assay (MTT), HaCat; type: cell-based, human; conditions: Normal, Keratinocytes, 72 hours
Method: as §1, §2
(§4) The present inventors further investigated the extent to which these compounds kill normal human cells; low cytotoxicity against normal human cells is advantageous property for anti-cancer agents. The cytotoxicity of these compounds in various normal human cell lines was therefore investigated (Table 3). Cells were grown and the survival assay was performed as described above (Materials and Methods).

G166 cells = assay: Survival assay (MTT), G166; type: cell-based, human; conditions: G166, Glioma, Grade IV, 72 hours
Method: as §3, §2

G14 cells = assay: Survival assay (MTT), G14; type: cell-based, human; conditions: G14, Glioma, Grade IV, 72 hours
Method: as §3, §2

Arpe19 cells = assay: Survival assay (MTT), Arpe19; type: cell-based, human; conditions: Arpe19, Normal, Ectoderm; 72 hours, MTT
Method: as §2, §4

Buffy A cells = assay: Survival assay (MTT), Buffy A; type: cell-based, human; conditions: Normal, Bone Marrow, 72 hours
Method: as §1, §2, §4

U3017 cells = assay: Survival assay (MTT), U3017; type: cell-based, human; conditions: U3017, Glioma, Grade IV, 72 hours
Method: as §1, §2

U3013 cells = assay: Survival assay (MTT), U3013; type: cell-based, human; conditions: U3013, Glioma, Grade IV, 72 hours
Method: as §1, §2

G30 cells = assay: Survival assay (MTT), G30; type: cell-based, human; conditions: G30, Glioma, Grade IV, 72 hours
Method: as §1, §2

SF188 cells = assay: Survival assay (MTT), SF188; type: cell-based, human; conditions: SF188, Glioma, Grade IV, 72 hours
Method: as §1, §2

CB152 cells = assay: Survival assay (MTT), CB152; type: cell-based, human; conditions: CB152, Glioma, Grade IV, 72 hours
Method: as §1, §2

G26 cells = assay: Survival assay (MTT), G26; type: cell-based, human; conditions: G26, Glioma, Grade IV, 72 hours
Method: as §1, §2

Buffy C cells = assay: Survival assay (MTT), Buffy C; type: cell-based, human; conditions: Normal, Bone Marrow, 72 hours
Method: as §1, §2, §4

Buffy M cells = assay: Survival assay (MTT), Buffy M; type: cell-based, human; conditions: Normal, Bone Marrow, 72 hours
Method: as §1, §2, §4

MRC5 cells = assay: Survival assay (MTT), MRC5; type: cell-based, human; conditions: MRC5, Normal, Lung; 72 hours, MTT
Method: as §1, §2, §4

G144 cells = assay: Survival assay (MTT), G144; type: cell-based, human; conditions: G144, Glioma, Grade IV, 72 hours
Method: as §3, §2

glioblastoma multiforme = conditions: Phase II trials (NCI 06-C-0064E); cited from earlier work

In the case of `Nc1nc(=O)n([C@H]2C[C@H](O)[C@@H](COP(=O)(O)OP(=O)(O)OP(=O)(O)O)O2)cc1CO` [5-hydroxymethyl-2′-deoxycytidine-5′-triphosphate], the “cytotoxicity to U87-MG cells (cell survival)” value (“cytotoxicity to U87-MG cells” below) (U87-MG cells; 72 hours) is reported as “cytotoxic”.

In the case of `CC(=O)OCc1cn([C@H]2C[C@H](O)[C@@H](CO)O2)c(=O)[nH]c1=O` [5-acetoxymethyl-2′-deoxyuridine], the “cytotoxicity to U87-MG cells” value (U87-MG cells; 72 hours) is reported as “unable to survive”.

With `Nc1nc(=O)n([C@H]2C[C@H](O)[C@@H](CO)O2)cc1Br` [5-bromo-2′-deoxycytidine, reference compound] the IC50 (U87-MG cells; Homo sapiens, U-87 MG, 72 h) was over 25 µM.

With `Nc1nc(=O)n([C@H]2C[C@H](O)[C@@H](COP(=O)(O)OP(=O)(O)OP(=O)(O)O)O2)cc1C=O` [5-formyl-2′-deoxycytidine-5′-triphosphate] the “cytotoxicity to U87-MG cells” value (U87-MG cells; 72 hours) was “cytotoxic” and the “cytotoxicity to HeLa cells (cell survival)” value (HeLa cells; three days of treatment, MTT, up to 100 μM) was “unable to survive”.

With `Nc1nc(=O)n([C@H]2C[C@H](O)[C@@H](CO)O2)cc1C(=O)O` [2d5caC, 5-carboxy-2′-deoxycytidine, reference compound] the IC50 (A-498 cells; Homo sapiens, A498, 72 h) was over 25 µM, the IC50 (U87-MG cells; Homo sapiens, U-87 MG, 72 h) was over 25 µM and the IC50 (HeLa cells; Homo sapiens, 72 h) was over 25 µM. It also gave an IC50 (HCT-116 cells; Homo sapiens, HCT-116, 72 h) of over 25 µM, an IC50 (U2OS cells; Homo sapiens) of over 25 µM and an IC50 (MCF-7 cells; Homo sapiens, MCF7) of over 25 µM. For the same compound, the “cytotoxicity in the cancer cell lines evaluated” value (human cancer cell lines) was “no cytotoxic properties”, the IC50 (NCI-N87 cells; Homo sapiens) was over 25 µM and the IC50 (22Rv1 cells; Homo sapiens, 22Rv1, 72 h) was over 25 µM. For the same compound, the IC50 (HL-60 cells; Homo sapiens) was over 25 µM, the IC50 (SK-OV-3 cells; Homo sapiens) was over 25 µM and the IC50 (A375 cells; Homo sapiens, A-375) was over 25 µM. For the same compound, the IC50 (MIA PaCa-2 cells; Homo sapiens, MIA PaCa-2) was over 25 µM, the IC50 (U937 cells; Homo sapiens, U-937) was over 25 µM and the IC50 (A549 cells; Homo sapiens, A549, 72 h) was over 25 µM.

For `COCc1cn([C@H]2C[C@H](O)[C@@H](CO)O2)c(=O)[nH]c1=O` [5-methoxymethyl-2′-deoxyuridine], the “cytotoxicity to U87-MG cells” value (U87-MG cells; 72 hours) was “unable to survive”.

Work on `Nc1nc(=O)n([C@H]2C[C@H](O)[C@@H](CO)O2)cc1I` [5-iodo-2′-deoxycytidine, reference compound] yielded an IC50 (U87-MG cells; Homo sapiens, U-87 MG, 72 h) of over 25 µM.

For `O=c1[nH]cc(F)c(=O)[nH]1` [5fU, 5-flurouracil, reference compound], the IC50 (DIPG007 cells) was 4.3 µM, the “number of Glioma, Grade IV cell lines killed” value [1] was 11 of 12 and the IC50 (G7 cells) was 6.46 µM. The IC50 (A-498 cells) was 2.37 µM, the IC50 (HaCat cells) was 0.523 µM and the IC50 (G166 cells) was 4.81 µM. For the same compound, the IC50 (U87-MG cells; 72 hours) was over 25 µM, the IC50 (G14 cells) was 11.6 µM and the IC50 (Arpe19 cells) was over 25 µM. For the same compound, the IC50 (Buffy A cells) was over 25 µM, the IC50 (HeLa cells; Cervical Adenocarcinoma, 72 hours, MTT) was over 25 µM and the IC50 (U3017 cells) was 3.92 µM. The IC50 (U3013 cells) was 4.14 µM, the IC50 (HCT-116 cells) was 3.54 µM and the IC50 (U2OS cells) was 2.89 µM. The IC50 (MCF-7 cells) was over 25 µM, the IC50 (G30 cells) was 23.3 µM and the IC50 (NCI-N87 cells) was 1.52 µM. For the same compound, the IC50 (22Rv1 cells) was over 25 µM, the IC50 (HL-60 cells) was over 25 µM and the IC50 (SF188 cells) was 3.88 µM. It also gave an IC50 (SK-OV-3 cells) of 3.76 µM, an IC50 (CB152 cells) of 6.5 µM and an IC50 (G26 cells) of 7.12 µM. It also gave an IC50 (A375 cells) of 7.87 µM, an IC50 (Buffy C cells) of over 25 µM and an IC50 (Buffy M cells) of over 25 µM. The IC50 (MIA PaCa-2 cells) was 8.1 µM, the IC50 (U937 cells) was 7.45 µM and the IC50 (A549 cells) was 1.85 µM. It also gave an IC50 (MRC5 cells) of over 25 µM and an IC50 (G144 cells) of 6.8 µM.

`Nc1nc(=O)n([C@H]2C[C@H](O)[C@@H](CO)O2)cc1Cl` [5-chloro-2′-deoxycytidine, reference compound] showed an IC50 (U87-MG cells; Homo sapiens, U-87 MG, 72 h) of over 25 µM.

In the case of “Avastin (RTM): bevacizumab, an angiogenesis inhibitor with multiple oncology indications”, the overall survival benefit (glioblastoma multiforme) is given as “did not yield an overall survival benefit”.
